In patent US20240190849A1, “AMINOPYRIMIDINE COMPOUNDS AND METHODS OF THEIR USE” (TYRA BIOSCIENCES, INC., priority 2021, published 2024) one finds Kd data, which are given here for 20 molecules.

Molecules are shown by their SMILES. Bounds are passed on as bounds.

What all share (conditions): FGFR binding data
One assay has as its target T1, FGFR1 (Homo sapiens, UniProt P11362).
T1 construct: made in house; host or cells: E. coli derived from BL21, infected with T7 phage
The experiment in a line: Kinase binding assay (kinase-tagged T7 phage, affinity beads, qPCR readout), FGFR1. Here is the method: (§1) Kinase-tagged T7 phage strains were prepared in an E. coli host derived from the BL21 strain. E. coli were grown to log-phase and infected with T7 phage and incubated with shaking at 32° C. until lysis. The lysates were centrifuged and filtered to remove cell debris. Streptavidin-coated magnetic beads were treated with biotinylated small molecule ligands for 30 minutes at room temperature to generate affinity resins for kinase assays. The liganded beads were blocked with excess biotin and washed with blocking buffer SeaBlock (Pierce), 1% BSA, 0.05% Tween 20, 1 mM DTT to remove unbound ligand and to reduce non-specific binding. Binding reactions were assembled by combining kinases, liganded affinity beads, and test compounds in 1× binding buffer (20% SeaBlock, 0.17×PBS, 0.05% Tween 20, 6 mM DTT).
(§2) Test compounds were prepared as 111× stocks in 100% DMSO. Kds were determined using an 11-point 3-fold compound dilution series with three DMSO control points. All compounds for Kd measurements are distributed by acoustic transfer (non-contact dispensing) in 100% DMSO. The compounds were then diluted directly into the assays such that the final concentration of DMSO was 0.9%. All reactions performed in polypropylene 384-well plate. Each was a final volume of 0.02 ml. The assay plates were incubated at room temperature with shaking for 1 hour and the affinity beads were washed with wash buffer (1×PBS, 0.05% Tween 20). The beads were then re-suspended in elution buffer (1×PBS, 0.05% Tween 20, 0.5 μM non-biotinylated affinity ligand) and incubated at room temperature with shaking for 30 minutes. The kinase concentration in the eluates was measured by qPCR.
(§3) Binding constants were calculated with a standard dose-response curve using the Hill equation: […]
(§4) The Hill Slope was set to −1. Curves were fitted using a non-linear least square fit with the Levenberg-Marquardt algorithm.

The target of another assay is T2, FGFR2 (Homo sapiens, UniProt P21802).
T2 construct: made in house; host or cells: E. coli derived from BL21, infected with T7 phage
T2 sequence (P21802 22-821): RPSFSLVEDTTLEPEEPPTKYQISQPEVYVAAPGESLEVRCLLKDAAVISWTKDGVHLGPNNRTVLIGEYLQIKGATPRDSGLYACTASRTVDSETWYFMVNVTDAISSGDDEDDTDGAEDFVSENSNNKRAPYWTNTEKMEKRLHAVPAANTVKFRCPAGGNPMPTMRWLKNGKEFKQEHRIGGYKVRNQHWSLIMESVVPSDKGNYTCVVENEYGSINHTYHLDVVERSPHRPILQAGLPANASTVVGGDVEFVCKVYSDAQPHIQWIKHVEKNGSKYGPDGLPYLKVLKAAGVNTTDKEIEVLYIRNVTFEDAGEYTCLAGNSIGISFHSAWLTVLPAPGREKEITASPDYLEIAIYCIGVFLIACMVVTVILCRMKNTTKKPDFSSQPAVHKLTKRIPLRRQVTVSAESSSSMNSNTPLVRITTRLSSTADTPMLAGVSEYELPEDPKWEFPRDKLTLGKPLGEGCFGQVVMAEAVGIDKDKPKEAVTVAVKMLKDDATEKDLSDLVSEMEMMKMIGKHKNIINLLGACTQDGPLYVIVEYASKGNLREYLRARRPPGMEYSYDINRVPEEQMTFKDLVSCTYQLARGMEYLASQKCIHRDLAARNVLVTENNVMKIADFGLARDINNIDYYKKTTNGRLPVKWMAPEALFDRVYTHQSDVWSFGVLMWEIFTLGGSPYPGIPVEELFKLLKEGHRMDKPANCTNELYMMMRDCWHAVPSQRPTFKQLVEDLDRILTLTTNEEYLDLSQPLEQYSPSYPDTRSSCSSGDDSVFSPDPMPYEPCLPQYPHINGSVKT
The experiment in a line: Kinase binding assay (kinase-tagged T7 phage, affinity beads, qPCR readout), FGFR2. Here is the method:
as §1, §2, §3, §4

The next assay deals with T3, FGFR3 (Homo sapiens, UniProt P22607).
T3 construct: made in house; host or cells: E. coli derived from BL21, infected with T7 phage
T3 sequence (P22607 23-806): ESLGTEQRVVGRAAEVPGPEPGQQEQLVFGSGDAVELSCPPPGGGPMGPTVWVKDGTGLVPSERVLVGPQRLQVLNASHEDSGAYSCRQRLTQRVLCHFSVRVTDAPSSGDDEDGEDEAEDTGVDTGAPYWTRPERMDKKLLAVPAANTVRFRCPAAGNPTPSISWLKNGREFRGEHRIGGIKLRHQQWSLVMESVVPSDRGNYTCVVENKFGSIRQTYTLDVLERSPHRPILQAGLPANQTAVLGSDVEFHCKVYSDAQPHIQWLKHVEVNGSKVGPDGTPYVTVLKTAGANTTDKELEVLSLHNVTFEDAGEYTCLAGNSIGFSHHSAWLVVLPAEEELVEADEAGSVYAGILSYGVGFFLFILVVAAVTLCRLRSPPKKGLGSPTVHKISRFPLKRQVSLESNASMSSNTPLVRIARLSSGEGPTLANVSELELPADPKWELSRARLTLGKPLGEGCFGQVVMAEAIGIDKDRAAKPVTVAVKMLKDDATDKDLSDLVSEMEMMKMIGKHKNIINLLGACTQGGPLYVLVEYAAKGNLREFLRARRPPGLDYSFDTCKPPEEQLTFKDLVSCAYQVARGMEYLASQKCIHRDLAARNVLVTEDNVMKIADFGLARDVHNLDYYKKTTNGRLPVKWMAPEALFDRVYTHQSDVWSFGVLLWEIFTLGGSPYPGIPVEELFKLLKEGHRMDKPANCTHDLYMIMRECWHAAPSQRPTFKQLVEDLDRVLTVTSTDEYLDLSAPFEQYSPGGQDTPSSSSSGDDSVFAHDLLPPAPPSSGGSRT
In words: Kinase binding assay (kinase-tagged T7 phage, affinity beads, qPCR readout), FGFR3. The procedure: as §1, §2, §3, §4
(Real-time PCR tracks product formation cycle by cycle.)

The target in a further assay is T4, FGFR3 (V555M) (Homo sapiens, UniProt P22607, V555M).
T4 construct: made in house; host or cells: E. coli derived from BL21, infected with T7 phage
T4 sequence (P22607 23-806 V555M): as the sequence (P22607 23-806) above, with V533M counted along it
The experiment in a line: Kinase binding assay (kinase-tagged T7 phage, affinity beads, qPCR readout), FGFR3 (V555M). The procedure: as §1, §2, §3, §4

T1 sequence (P11362 22-822): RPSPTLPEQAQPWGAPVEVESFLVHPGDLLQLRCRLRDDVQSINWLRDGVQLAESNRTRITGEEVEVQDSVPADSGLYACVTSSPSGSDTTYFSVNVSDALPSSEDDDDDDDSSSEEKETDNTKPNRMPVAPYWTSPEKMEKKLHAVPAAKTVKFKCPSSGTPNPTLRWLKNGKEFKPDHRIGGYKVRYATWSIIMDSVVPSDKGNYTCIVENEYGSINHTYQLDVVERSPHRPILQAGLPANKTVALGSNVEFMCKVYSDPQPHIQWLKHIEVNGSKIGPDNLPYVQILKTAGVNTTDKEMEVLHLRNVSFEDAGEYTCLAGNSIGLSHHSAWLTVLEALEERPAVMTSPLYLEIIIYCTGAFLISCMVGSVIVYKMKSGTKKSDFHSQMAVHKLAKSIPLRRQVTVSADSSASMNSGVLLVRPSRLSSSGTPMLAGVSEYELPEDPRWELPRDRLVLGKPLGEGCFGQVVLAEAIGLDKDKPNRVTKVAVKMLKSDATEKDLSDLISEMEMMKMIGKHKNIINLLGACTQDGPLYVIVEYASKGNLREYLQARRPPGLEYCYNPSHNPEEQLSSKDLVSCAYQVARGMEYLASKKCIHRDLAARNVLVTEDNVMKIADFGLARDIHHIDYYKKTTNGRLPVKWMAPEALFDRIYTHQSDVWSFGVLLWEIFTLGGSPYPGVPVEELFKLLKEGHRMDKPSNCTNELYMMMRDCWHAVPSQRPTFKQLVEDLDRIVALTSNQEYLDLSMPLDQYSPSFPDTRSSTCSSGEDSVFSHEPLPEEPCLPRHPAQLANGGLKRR

Usually Kd stands for the equilibrium constant for the complex coming apart. High values mean weaker binding, low ones tighter binding. For `Cc1cn(-c2nc(Nc3cnn(C[C@@H](C)O)c3)ncc2F)c2ncc(NC(=O)/C=C/CN(C)C)cc12` [Example 191, (E)-4-(dimethylamino)-N-[1-[5-fluoro-2-[[1-[(2R)-2-hydroxypropyl]pyrazol-4-yl]amino]pyrimidin-4-yl]-3-methyl-pyrrolo[2,3-b]pyridin-5-yl]but-2-enamide], the Kd on FGFR1, on FGFR2, on FGFR3 and at FGFR3 (V555M) was 0.1 to 100 nM each time.

For the molecule `C=CC(=O)Nc1ccc2c(c1)c(C)cn2-c1nc(Nc2ccn(C3CC3)n2)ncc1C` [Example 99, N-[1-[2-[(1-cyclopropylpyrazol-3-yl)amino]-5-methyl-pyrimidin-4-yl]-3-methyl-indol-5-yl]prop-2-enamide], the Kd on FGFR1, on FGFR2, at FGFR3 and on FGFR3 (V555M) was 0.1 to 100 nM each time.

On to `C=CC(=O)Nc1ccc2c(-c3nc(Nc4ccc(N5CCOCC5)nc4)ncc3Cl)cn(C)c2c1` [Example 45, N-[3-[5-chloro-2-[(6-morpholino-3-pyridyl)amino]pyrimidin-4-yl]-1-methyl-indol-6-yl]prop-2-enamide], for which the Kd at FGFR1, at FGFR2, at FGFR3 and on FGFR3 (V555M) was 0.1 to 100 nM in each case.

Consider `C=CC(=O)Nc1ccc2c(-c3nc(Nc4cc(C)nn4C)ncc3Cl)cn(C)c2c1` [Example 63, N-[3-[5-chloro-2-[(2,5-dimethylpyrazol-3-yl)amino]-pyrimidin-4-yl]-1-methyl-indol-6-yl]prop-2-enamide], for which the Kd at FGFR1 lay in the range of 250 to 1000 nM; on FGFR2, 0.1 to 100 nM; on FGFR3, 0.1 to 100 nM; at FGFR3 (V555M) it was 0.1 to 100 nM.

As to `CC#CC(=O)Nc1ccc2c(c1)c(C)cn2-c1nc(Nc2cnn(CCO)c2)ncc1C` [Example 140, N-[1-[2-[[1-(2-hydroxyethyl)pyrazol-4-yl]amino]-5-methyl-pyrimidin-4-yl]-3-methyl-indol-5-yl]but-2-ynamide], the Kd on FGFR1 fell in the range of 100 to 250 nM; on FGFR2 it was 0.1 to 100 nM; on FGFR3 it was 0.1 to 100 nM; on FGFR3 (V555M) it was 0.1 to 100 nM.

With `C=CC(=O)Nc1ccc2c(ccn2-c2nc(Nc3cn(C)nc3OCC)ncc2Cl)c1` [Example 14, N-[1-[5-chloro-2-[(3-ethoxy-1-methyl-pyrazol-4-yl)amino]pyrimidin-4-yl]indol-5-yl]prop-2-enamide], the Kd on FGFR1 is 250 to 1000 nM; at FGFR2, over 1000 nM; on FGFR3, over 1000 nM; on FGFR3 (V555M), 100 to 250 nM.

`C=CC(=O)Nc1ccc2c(ccn2-c2nc(Nc3cn(C)nc3OC)ncc2Cl)c1` [Example 12, N-[1-[5-chloro-2-[(3-methoxy-1-methyl-pyrazol-4-yl)amino]-pyrimidin-4-yl]indol-5-yl]prop-2-enamide]: the Kd at FGFR1 is 250 to 1000 nM; on FGFR2, over 1000 nM; at FGFR3, 100 to 250 nM; at FGFR3 (V555M) it was 0.1 to 100 nM.

With `C=CC(=O)Nc1cnc2c(c1)c(C)cn2-c1nc(Nc2ccn(C3COC3)n2)ncc1C` [Example 113, N-[3-methyl-1-[5-methyl-2-[[1-(oxetan-3-yl)pyrazol-3-yl]amino]-pyrimidin-4-yl]pyrrolo[2,3-b]pyridin-5-yl]prop-2-enamide], the Kd on FGFR1, at FGFR2, at FGFR3 and on FGFR3 (V555M) was 0.1 to 100 nM throughout.

For the molecule `CC#CC(=O)Nc1cnc2c(c1)c(C)cn2-c1nc(Nc2ccnn2C)ncc1F` [Example 134, N-[1-[5-fluoro-2-[(2-methylpyrazol-3-yl)amino]pyrimidin-4-yl]-3-methyl-pyrrolo[2,3-b]pyridin-5-yl]but-2-ynamide], the Kd at FGFR1, at FGFR2, on FGFR3 and on FGFR3 (V555M) was over 1000 nM in each case.

As to `C=CC(=O)Nc1ccc2c(c1)c(C)cn2-c1nc(Nc2cccc(N3CCN(CCO)CC3)c2)ncc1Cl` [Example 88, N-[1-[5-chloro-2-[3-[4-(2-hydroxyethyl)piperazin-1-yl]anilino]pyrimidin-4-yl]-3-methyl-indol-5-yl]prop-2-enamide], the Kd on FGFR1, on FGFR2, on FGFR3 and at FGFR3 (V555M) was 0.1 to 100 nM in each case.

For the molecule `Cc1cn(-c2nc(Nc3cnn(C[C@@H](C)O)c3)ncc2F)c2ncc(NC(=O)/C=C/CN3CCOCC3)cc12` [Example 197, (E)-N-[1-[5-fluoro-2-[[1-[(2R)-2-hydroxypropyl]pyrazol-4-yl]amino]pyrimidin-4-yl]-3-methyl-pyrrolo[2,3-b]pyridin-5-yl]-4-morpholino-but-2-enamide], the Kd at FGFR1 was in the range of 250 to 1000 nM; at FGFR2 it was 250 to 1000 nM; on FGFR3, 100 to 250 nM; at FGFR3 (V555M), 250 to 1000 nM.

`Cc1cnc(Nc2cn(C)nc2C)nc1-n1cc(C)c2cc(NC(=O)/C=C/CN(C)C)cnc21` [Example 200, (E)-4-(dimethylamino)-N-[1-[2-[(1,3-dimethylpyrazol-4-yl)amino]-5-methyl-pyrimidin-4-yl]-3-methyl-pyrrolo[2,3-b]pyridin-5-yl]but-2-enamide]: the Kd on FGFR1, on FGFR2, on FGFR3 and at FGFR3 (V555M) was 0.1 to 100 nM in each case.

With `C=CC(=O)Nc1ccc2c(c1)c(C)cn2-c1nc(Nc2c(C)cccc2OCC)ncc1C#N` [Example 33, N-[1-[5-cyano-2-(2-ethoxy-6-methyl-anilino)pyrimidin-4-yl]-3-methyl-indol-5-yl]prop-2-enamide], the Kd on FGFR1, at FGFR2, on FGFR3 and on FGFR3 (V555M) was over 1000 nM throughout.

As for `C=CC(=O)Nc1ccc2c(c1)c(C)cn2-c1cc(Nc2cn(C)nc2C)ncn1` [Example 222, N-[1-[6-[(1,3-dimethylpyrazol-4-yl)amino]pyrimidin-4-yl]-3-methyl-indol-5-yl]prop-2-enamide], the Kd at FGFR1, at FGFR2, at FGFR3 and on FGFR3 (V555M) was over 1000 nM throughout.

Consider `C=CC(=O)Nc1ccc2c(c1)c(C)cn2-c1cc(Nc2cn(C)nc2C)nnc1C` [Example 209, N-[1-[6-[(1,3-dimethylpyrazol-4-yl)amino]-3-methyl-pyridazin-4-yl]-3-methyl-indol-5-yl]prop-2-enamide], for which the Kd on FGFR1, on FGFR2, on FGFR3 and at FGFR3 (V555M) was over 1000 nM in each case.

Regarding `CC#CC(=O)N(C)c1ccc2c(c1)c(C)cn2-c1nc(Nc2ccnn2C)ncc1C` [Example 152, N-methyl-N-[3-methyl-1-[5-methyl-2-[(2-methylpyrazol-3-yl)amino]pyrimidin-4-yl]indol-5-yl]but-2-ynamide], the Kd on FGFR1, on FGFR2, at FGFR3 and on FGFR3 (V555M) was over 1000 nM in each case.

For `C=CC(=O)Nc1ccc2c(c1)c(C)cn2-c1nc(Nc2cc(C)nn2C)ncc1Cl` [Example 56, N-[1-[5-chloro-2-[(2,5-dimethylpyrazol-3-yl)amino]-pyrimidin-4-yl]-3-methyl-indol-5-yl]prop-2-enamide], the Kd at FGFR1 is 100 to 250 nM; at FGFR2 it was 0.1 to 100 nM; at FGFR3, 0.1 to 100 nM; on FGFR3 (V555M) it was 0.1 to 100 nM.

Turning to `Cc1cn(-c2nc(Nc3cnn(C[C@H](C)O)c3)ncc2F)c2ncc(NC(=O)/C=C/CN3CCOCC3)cc12` [Example 198, (E)-N-[1-[5-fluoro-2-[[1-[(2S)-2-hydroxypropyl]pyrazol-4-yl]amino]pyrimidin-4-yl]-3-methyl-pyrrolo[2,3-b]pyridin-5-yl]-4-morpholino-but-2-enamide], the Kd at FGFR1 lay in the range of 250 to 1000 nM; on FGFR2 it was 100 to 250 nM; on FGFR3 it was 100 to 250 nM; on FGFR3 (V555M), 250 to 1000 nM.

As for `C=C(F)C(=O)Nc1cnc2c(c1)c(C)cn2-c1nc(Nc2ccn(C)n2)ncc1C` [Example 117, 2-fluoro-N-[3-methyl-1-[5-methyl-2-[(1-methylpyrazol-3-yl)amino]pyrimidin-4-yl]pyrrolo[2,3-b]pyridin-5-yl]prop-2-enamide], the Kd on FGFR1, on FGFR2, on FGFR3 and at FGFR3 (V555M) was over 1000 nM each time.

As for `C=CC(=O)Nc1cc2c(C)cn(-c3nc(Nc4ccc(N5CCOCC5)cc4)ncc3Cl)c2cc1C` [Example 60, N-[1-[5-chloro-2-(4-morpholinoanilino)-pyrimidin-4-yl]-3,6-dimethyl-indol-5-yl]prop-2-enamide], the dissociation constant (Kd) was over 1000 nM on FGFR1, over 1000 nM on FGFR2, over 1000 nM at FGFR3 and 100 to 250 nM on FGFR3 (V555M).
